Literature values as cited in US5874104A, “Treatment of systemic fungal infections with phospholipid particles encapsulating polyene antibiotics” (NeXstar Pharmaceuticals, Inc., priority 1995, dated 1999).

Experiments:
patients = settings: for Toxicity to cells of the patient: human, in vivo
[1] = saline as suspending solution; Jurgens et al.
renal tubules = settings: mammals
host = settings: in vivo

Row | Compound | Toxicity to cells of the patient (patients) | Clinical toxicity (patients; at therapeutic dose levels) | Precipitation in saline [1] | Toxicity for membrane systems (renal tubules) | Host toxicity of liposomal drug (host)
1 | C[C@@H]1[C@H](O)[C@@H](C)/C=C/C=C/CC/C=C/C=C/C=C/C=C/C(O[C@H]2O[C@H](C)[C@@H](O)[C@H](N)[C@@H]2O)CC2O[C@](O)(CC(O)C(O)CCC(O)CC(O)CC(O)CC(=O)O[C@H]1C)CC(O)C2C(=O)O (stereo partly drawn) [nystatin] | acute and chronic toxicity |  |  |  | 
2 | C[C@@H]1[C@H](O)[C@@H](C)/C=C/C=C/C=C/C=C/C=C/C=C/C=C/[C@H](O[C@@H]2O[C@H](C)[C@@H](O)[C@H](N)[C@@H]2O)C[C@@H]2O[C@](O)(C[C@@H](O)C[C@@H](O)[C@H](O)CC[C@@H](O)C[C@@H](O)CC(=O)O[C@H]1C)C[C@H](O)[C@H]2C(=O)O [amphotericin B] | acute and chronic toxicity | acute hemolytic crisis and eventual kidney failure | precipitation | greater for certain membrane systems, such as the renal tubules | 
3 | liposomal Amphotericin B |  |  |  |  | decreased host toxicity
